According to patent US20150225454A1, “TETRABRANCHED PEPTIDES AND ANALOGUES AS A NEW CLASS OF ANTIMICROBIALS AND THEIR PREPARATION THEREOF” (priority 2012, published 2015):
Like-named read-outs stand apart in the source and are kept apart here. Where a SMILES comes first, the peptide text is derived from it. Bridges are numbered along the chain shown (N, C = ends). Roman numbers before positions name the chains, in order.

Key:
C. albicans [1] = type: cell-based; details: 50% tear fluid
Method: For all the experiments, unless otherwise stated, ATCC 10231 strain was used. B4010 (1 mg/ml) was incubated with trypsin (enzyme:peptide ratio 1:100) at 37° C. 20 μL aliquot of this mixture was withdrawn at various time intervals (0.5, 1, 2, 4 and 6 h) and mixed with 1 μL of trypsin inhibitor. The antifungal activity of the peptide was determined by adding this mixture to 180 μl of inoculum and monitoring the growth at OD600 for 24 h. Similar experiments performed in the presence of trypsin/trypsin inhibitor (without B4010) were used as a positive control. For assessing the antifungal activity in tear fluid (TF), the peptide was dissolved in freshly collected rabbit TF and incubated at 37° C. for 6 h. After incubation, an equal volume of an overnight culture of C. albicans (˜10^6 CFU/ml) was mixed with peptides in tear fluid and incubated at 37° C. for 24 h. The final concentrations of the peptide were at 4.4, 8.8 and 22 μM. A 100 μL aliquot of serial dilutions (10^2 or 10^3 times) of this mixture were inoculated on a SD agar plate and then incubated for 48 h at 37° C. Culture alone and culture with 50% tear fluid served as the positive control. The data was expressed in % killing with respect to culture without tear fluid.

C. albicans ATCC10231 = experiment: MIC in the presence of monovalent and divalent metal ions; type: cell-based
Method: For studying the effects of metal ions, SD broth was adjusted with appropriate concentrations of salts to yield a final concentration of 100 and 135 mM for NaCl and KCl and 0.5-2 mM for CaCl2 and MgCl2. MIC determinations were carried out as described above. C. albicans ATCC10231 cells and salts in broth were taken as a positive control. Salts alone (NaCl, KCl, and CaCl2 and MgCl2) in broth or with 22 μM peptide served as a negative control.

C. albicans (ATCC 10231) = experiment: SYTOX Green (SG) uptake assay; type: cell-based
C. albicans [2] = type: cell-based
Method: For the effects of energy poisons and ion channel inhibitors, yeast cells (10^5-10^6 CFU/ml) were incubated for 2 h with or without additives at 37° C. A final concentration of 5.5 μM B4010 peptide was added to the cell suspension and incubated further for another 1.5 h at 37° C. Each cell suspension was further diluted and 100 μl of the cells were plated and incubated at 37° C. SDA plates with additives (and no peptide) served as the positive control. Cell viability was obtained by counting the number of colonies formed in each plate after 48 h incubation at 37° C. The final concentrations of the additives were: CCCP (5 μM), NaN3 (5 mM), 4-AP (1 mM), NPPB (0.5 mM), […] (1 mM) and tetra ethyl ammonium chloride (15 mM). The reported values were averages of two independent duplicate experiments. Control experiments with all the additives were also performed to assess the toxicity of the additives to C. albicans.

C. albicans [3] = experiment: Cell viability assay under diS-C3-5 assay conditions; type: cell-based; details: concentration exceeding 4×MIC
Method: To verify if the dissipation of membrane potential is linked to candidacidal activity, a cell viability assay was performed under identical conditions.

IOBA-NHC cells = type: cell-based, human; details: 24 h incubation; read-out: EC50 (concentration that reduces the viable cells by 50%)
How it was run: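 Subconfluent (~70%) IOBA-NHC conjunctival cells, passages 50–80, seeded ~10,000/well and grown 24 h at 37 °C in supplemented DMEM/F12 with 10% FBS. Exposed to peptide at 0.22–225 μM; cytotoxicity followed over time by MultiTox-Fluor […] fluorescence (ex 485/em 520 nm).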

C. albicans [4] = experiment: Candidacidal activity (cell viability) in the presence of metal ions; type: cell-based; details: 5.5 μM
Method: To study the effects of metal ions on viability, the broth solution containing C. albicans (OD600=0.4-0.6) was adjusted to appropriate final concentrations of metal ions, incubated with 5.5 μM of B4010 for 6 h and the cell viability was determined as before after 48 h.

`CC(C)[C@H](NC(=O)[C@H](CCCCN)NC(=O)[C@H](CCCNC(=N)N)NC(=O)CNC(=O)[C@@H](N)CCCNC(=N)N)C(=O)N[C@H](C(=O)N[C@@H](CCCNC(=N)N)C(=O)N[C@@H](CCCNC(=N)N)C(=O)NCCCC[C@H](NC(=O)[C@H](CCCNC(=N)N)NC(=O)[C@H](CCCNC(=N)N)NC(=O)[C@@H](NC(=O)[C@@H](NC(=O)[C@H](CCCCN)NC(=O)[C@H](CCCNC(=N)N)NC(=O)CNC(=O)[C@@H](N)CCCNC(=N)N)C(C)C)C(C)C)C(=O)NCCCC[C@H](NC(=O)[C@H](CCCCNC(=O)[C@H](CCCNC(=N)N)NC(=O)[C@H](CCCNC(=N)N)NC(=O)[C@@H](NC(=O)[C@@H](NC(=O)[C@H](CCCCN)NC(=O)[C@H](CCCNC(=N)N)NC(=O)CNC(=O)[C@@H](N)CCCNC(=N)N)C(C)C)C(C)C)NC(=O)[C@H](CCCNC(=N)N)NC(=O)[C@H](CCCNC(=N)N)NC(=O)[C@@H](NC(=O)[C@@H](NC(=O)[C@H](CCCCN)NC(=O)[C@H](CCCNC(=N)N)NC(=O)CNC(=O)[C@@H](N)CCCNC(=N)N)C(C)C)C(C)C)C(=O)N[C@@H](CCCCN)C(=O)O)C(C)C` [Peptide B4010] (I: H-RGRKVVRRKKK-OH / II: H-RGRKVVRRK / III: H-RGRKVVRR / IV: H-RGRKVVRR; amide I:9-IV:C, I:10-II:C, II:9-III:C; N-terminus and C-terminus assumed) was tested, and the candidacidal activity (C. albicans [1]; 22 μM) was “no loss of activity”, the candidacidal activity (C. albicans [1]; 4.4 and 8.8 μM) was “moderately suppressed” and the “increase in MIC” value (C. albicans ATCC10231; 25 mM KCl) was 8 fold. The “increase in MIC compared to medium without KCl” value (C. albicans ATCC10231; 100 mM KCl) was > 16 fold, the “decrease in MIC” value (C. albicans ATCC10231; 135 mM NaCl) was 2 fold and the “change in MIC” value (C. albicans ATCC10231; high concentration of Ca2+ and Mg2+ ions) was “two fold increase”. For the same compound, the “increase in MIC” value (C. albicans ATCC10231; physiological concentrations of divalent cations) was 2 fold, the “SG uptake (permeation)” value (C. albicans (ATCC 10231); 1×MIC) was 24% and the cells membrane compromised (C. albicans (ATCC 10231); 2×MIC, 10 mins) was “About 70%”. The dye uptake (C. albicans (ATCC 10231); 4×MIC, within 25 mins) was > 90%, the “SG uptake (permeation)” value (C. albicans (ATCC 10231); ½×MIC) was 13% and the loss of viability (C. albicans [2]) was 54±6%. The “protection from B4010-induced lethality” value (C. albicans [2]; cells pre-incubated with CCCP) was “partial protection”, the viability (C. albicans [2]; cells pretreated with TEA and 4-AP) was “significant loss of viability” and the “protection from B4010-induced lethality” value (C. albicans [2]; presence of NaN3) was “complete protection”. The cell viability (C. albicans [3]) was “complete loss of viability”, the EC50 (IOBA-NHC cells) was 220 µM and the candidacidal activity (C. albicans [4]; high concentration of KCl) was “slight decrease in the candidacidal activity”. The cell viability (C. albicans [4]; presence of monovalent and divalent cations) was “complete loss of viable cells”.
